Experimental data reported in patent US9718825B2, “N-(4-(azaindazol-6-yl)-phenyl)-sulfonamides and their use as pharmaceuticals” (priority 2013, dated 2017).

What was measured:
[1] = target: recombinant human SGK-1 enzyme (Homo sapiens, UniProt O00141); assay: Enzymatic activity assay: SGK-1 substrate peptide phosphorylation (Caliper lab-chip mobility shift); format: biochemical; settings: peptide substrate 1 μM, ATP 10 μM, 60 min at 37° C., read-out: IC50 values for inhibition of SGK-1 enzymatic activity
Chain of recombinant human SGK-1 enzyme (O00141 whole entry, looked up): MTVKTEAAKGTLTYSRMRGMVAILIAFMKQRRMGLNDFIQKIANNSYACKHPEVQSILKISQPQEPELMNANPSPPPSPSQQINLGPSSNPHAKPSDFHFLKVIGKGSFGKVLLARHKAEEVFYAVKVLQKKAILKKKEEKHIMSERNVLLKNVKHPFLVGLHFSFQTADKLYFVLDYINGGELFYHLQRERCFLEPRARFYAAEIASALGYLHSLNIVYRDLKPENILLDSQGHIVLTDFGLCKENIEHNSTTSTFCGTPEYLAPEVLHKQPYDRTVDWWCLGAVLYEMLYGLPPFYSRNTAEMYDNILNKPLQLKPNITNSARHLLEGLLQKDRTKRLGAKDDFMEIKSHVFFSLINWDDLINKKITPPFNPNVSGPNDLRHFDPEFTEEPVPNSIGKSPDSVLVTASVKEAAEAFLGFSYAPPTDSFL

[2] = test system: collagen type X (Col10a1) expression in mouse chondrogenic ATDC5 cells; assay: Chondrocyte hypertrophic differentiation in mouse chondrogenic ATDC5 cells (collagen type X expression); format: cell-based; settings: Col10a1 expression by quantitative real-time PCR after two weeks of cell culture; read-out: IC50 values for the inhibition of collagen type X expression in mouse chondrogenic ATDC5 cells
Description: D) Determination of the effect on chondrocyte hypertrophic differentiation in mouse chondrogenic ATDC5 cells
The ATDC5 cell assay was used as in vitro model to determine the effects of the compounds of the invention on chondrocyte hypertrophic differentiation by monitoring the expression levels of collagen type X (Col10a1) as specific marker of chondrocyte hypertrophy.
Background: ATDC5 cells are a clonal mouse embryonic cell line derived from multipotent AT805 teratocarcinoma cells (Atsumi, T. et al., A chondrogenic cell line derived from a differentiating culture of AT805 teratocarcinoma cells, Cell Differ. Dev. 1990, 30, 109-116). The cells can undergo insulin-dependent chondrogenic cell differentiation entailing distinct differentiation stages starting from an undifferentiated, subconfluent stage, a condensation stage, a cartilage nodule formation stage and a calcification stage within 45 days of in vitro culture. Chondrogenic differentiation can be shown by measuring the expression of the cartilage main collagen (Col2a1) and aggrecan (AGC1) and glycosaminoglycan-staining with Alcian Blue within two weeks after insulin-triggered differentiation, and hypertrophic differentiation can be monitored by the expression of collagen type X (Col10a1), a specific marker of chondrocyte hypertrophy within 21 days of in vitro culture. (Shukunami, C. et al., Chondrogenic Differentiation of Clonal Mouse Embryonic Cell Lne ATDC5 In Vitro: Differentiation-dependent Gene Expression of Parathyroid Hormone (PTH)/PTH-related Peptide Receptor, J. Cell Biol. 1996, 133, 457-468). Growth factor BMP-2 is known to stimulate cell differentiation and can stimulate early and late-phase ATDC5 differentiation (Shukunami, C. et al., Sequential Progression of the Differentiation Program by Bone Morphogenetic Protein-2 in Chondrogenic Cell Line ATDC5, Exp. Cell Res. 1998, 241, 1-11). Thyroid hormone triiodothyronine (T3) promotes hypertrophic differentiation of growth plate chondrocytes (Robson, H. et al., Thyroid Hormone Acts Directly on Growth Plate Chondrocytes to Promote Hypertrophic Differentiation and Inhibit Clonal Expansion and Cell Proliferation, Endocrinology 2000, 141, 3887-3897). Addition of BMP2 and T3 can accelerate ATDC5 hypertrophic differentiation leading to the strong induction Col10a1 expression between 10-14 days. SGK-inhibitors were added to differentiating ATDC5 cells for 14 days and Col10a1 gene expression was quantified to determine effects on chondrocyte hypertrophic differentiation.
Cell assay description: ATDC5 cells were maintained in 300 cm^2 tissue culture flasks in DMEM/Ham's F12+5% FCS supplemented with 10 μg/ml human transferrin, 30 nM sodium selenite, 50 μg/ml kanamycin and grown at 37° C. in 5% CO2 in 95% air. To initiate cell differentiation, 9.9×10^4 cells were plated in 24 well plates and grown for 2 days. Medium was exchanged with DMEM/Ham's F12+5% FCS supplemented with 10 μg/ml human transferrin, 30 nM sodium selenite, 50 μg/ml ascorbic acid and 1 μg/ml BMP2. The assay was run in triplicates, compounds were added in […], and medium changed every 2-3 days including supplementation of compound. At day 7 after initiation of cell differentiation, 1 μM T3 was used as additional supplement in the cell culture.
After two weeks of cell culture, RNA was isolated and converted to cDNA for determination of gene expression by quantitative real-time PCR. Cells were lysed in 600 μl of RLT-buffer (Qiagen) and total RNA was isolated using the RNA-easy Mini RNA isolation Kit (Qiagen) which was run on a Qiacube system (Qiagen) according to the supplier's instructions. RNA was isolated in 30 μl of pure water and the RNA content measured by UV-spectroscopy (Nanodrop, Peqlab). For cDNA synthesis 50 ng total RNA was reverse transcribed using the High Capacity cDNA Reverse Transcription Kit (Applied Biosystems, Product Number 4368813) according to the manufacturer's instructions. […]

[3] = test system: SGK-1 dependent phosphorylation of GSK3beta in U2OS cells; assay: SGK-1 dependent phosphorylation of GSK3beta in U2OS cells overexpressing recombinant SGK-1 and GSK3beta; format: cell-based, human; settings: U2OS cells, 6 h incubation, ratio of phosphorylated GSK3beta to total GSK3beta; read-out: IC50 values for inhibition of SGK-1 dependent phosphorylation of GSK3beta in U2OS cells
[4] = test system: SGK-1 dependent activation of ENaC-currents in A6 cell monolayers; assay: Functional electrophysiological assay (Ussing chamber): SGK-1 dependent activation of ENaC-currents in A6 cell monolayers; format: cell-based, Xenopus laevis; settings: hypoosmotic shock 45 min, amiloride-sensitive ΔI'sc, read-out: IC50 values for inhibition of SGK-1 dependent activation of ENaC-currents in A6 cell monolayers
Experimental: C) Functional Electrophysiological Assay for Determination of SGK-1 Dependent Activation of ENaC-Currents in A6 Cell Monolayers
Cells were grown in cell culture flasks (Nunc) at 28° C. in a humidified atmosphere with 4% CO2. The culture medium contained a 7:3 mixture of Leibovitz's L-15 (Sigma-Aldrich)/Coon's (Sigma-Aldrich) media supplemented with 10% fetal bovine serum (PAA), 20% sterile water, 25 mM NaHCO3 (Sigma-Aldrich), 100 U/ml penicillin (PAA) and 100 μg/ml streptomycin (PAA). The osmolality of the medium was 270 mOsml/kg H2O). Cells were detached with accutase (PAA) and seeded for electrophysiological measurements into transwell filter inserts (polyester 0.4 μm pore size, Corning) at a density of 0.4×10^6 cells/filter. Cells were cultivated for 7-10 days, and confluent A6 cell monolayers were identified by repetitive resistance measurements in cell culture medium using an EVOM^2 ohmmeter (World Precision Instruments). Monolayers with a resistance of >10 kOhm were considered confluent. Filters with confluent A6 cells were transferred into a continuously perfused Ussing-chamber, and electrophysiological parameters were measured under open circuit conditions using a transepithelial clamp amplifier (EP Design). Short circuit current (I′sc) was calculated by Ohm's law. […] The pH was adjusted to 8.2. All measurements were done at room temperature.
To evaluate the effects of SGK inhibitors on ENaC-mediated transepithelial currents, A6 monolayers were first equilibrated for 5 min with isoosmotic Ringer solution from both the luminal and basolateral side of the cell layer. Amiloride was applied to the luminal site to establish the basal ENaC-dependent current (I′scbasal). Cell layers were then perfused from the basolateral side for 10 min with compounds in isotonic buffer or control isotonic buffer. SGK signaling leading to increased ENaC activity and subsequent increase in I′sc was stimulated by application of hypoosmotic Ringer-solution for 45 min to both sides of the A6 cell layer. ENaC-dependent I′sc after the hypoosmotic shock (I′schypo) was determined by application of amiloride at the end of the experiment. Total changes of amiloride-sensitive Isc was calculated as ΔI′sc=I′schypo−I′scbasal. […] The inhibition of ΔI′sc by the test compounds was determined relative to the ΔI′sc measured with control monolayers which were not treated with the test compound.

| Structure (SMILES) | IC50 [1] [µM] | IC50 [2] [µM] | IC50 [3] [µM] | IC50 [4] [µM] |
| --- | --- | --- | --- | --- |
| O=S(=O)(Nc1ccc(-c2nc(OCCO)c3cn[nH]c3n2)cc1)c1cc(Cl)ccc1F [Example 32] | 0.0051 | 0.28 |  |  |
| O=S(=O)(Nc1ccc(-c2nc(O[C@H]3CC[C@@H](O)CC3)c3cn[nH]c3n2)cc1)c1cc(Cl)ccc1F [Example 79] |  | 0.025 |  |  |
| Cc1ccc(C#N)c(S(=O)(=O)Nc2ccc(-c3nc(OC4CCC(O)CC4)c4c(C)n[nH]c4n3)cc2)c1 (centres unmarked) [Example 96] | < 0.0015 | 0.033 | 0.74 |  |
| CC(C)COc1nc(-c2ccc(NS(=O)(=O)c3cc(Cl)ccc3Cl)cc2)nc2[nH]nc(N)c12 [Example 310] | 0.13 |  | 0.22 | 10 |
| Cc1ccc(F)c(S(=O)(=O)Nc2ccc(-c3nc(OCC(C)C)c4c(N)n[nH]c4n3)cc2)c1 [Example 317] | 0.011 |  | 0.21 | 10 |
| Cc1n[nH]c2nc(-c3ccc(NS(=O)(=O)c4cc(F)ccc4F)cc3)nc(OC3CCCNC3)c12 (centres unmarked) [Example 321] | 0.0069 | 0.68 | 0.038 |  |
| Cc1n[nH]c2nc(-c3ccc(NS(=O)(=O)c4cc(Cl)ccc4Cl)cc3)nc(OC3CCCNC3)c12 (centres unmarked) [Example 322] | 0.0026 | 0.008 | 0.026 |  |
| CC(C)COc1nc(-c2ccc(NS(=O)(=O)c3cc(F)ccc3F)cc2)nc2[nH]nc(N)c12 [Example 328] | 0.17 | 0.094 | 0.15 |  |
| Cc1n[nH]c2nc(-c3ccc(NS(=O)(=O)c4cc(F)ccc4F)cc3)nc(OC3CCN(CCF)CC3)c12 [Example 344] | 0.005 | 0.016 |  |  |
| Cc1n[nH]c2nc(-c3ccc(NS(=O)(=O)c4cc(Cl)ccc4Cl)cc3)nc(OC3CCN(C(C)C)CC3)c12 [Example 351] | 0.0038 | 0.043 |  |  |
| Cc1ccc(F)c(S(=O)(=O)Nc2ccc(-c3nc(OC4CCN(C(C)C)CC4)c4c(C)n[nH]c4n3)cc2)c1 [Example 353] | 0.0038 | 0.021 |  |  |
| COc1ccc(F)c(S(=O)(=O)Nc2ccc(-c3nc(OC4CCN(C(C)C)CC4)c4c(C)n[nH]c4n3)cc2)c1 [Example 357] | 0.0036 | 0.061 |  |  |
| Cc1n[nH]c2nc(-c3ccc(NS(=O)(=O)c4cc(Cl)ccc4Cl)cc3)nc(OCCCO)c12 [Example 378] | 0.0058 | 0.057 |  |  |
| Cc1ccc(C#N)c(S(=O)(=O)Nc2ccc(-c3nc(OCCCO)c4c(C)n[nH]c4n3)cc2)c1 [Example 380] | 0.012 | 0.12 |  |  |
| Cc1n[nH]c2nc(-c3ccc(NS(=O)(=O)c4cc(Cl)ccc4F)cc3)nc(OCCCO)c12 [Example 391] | 0.0096 | 0.12 |  |  |
